For 6 compounds, IC50 results are on record in patent publication US20240025863A1, “SOS1 PROTEIN DEGRADERS, PHARMACEUTICAL COMPOSITIONS THEREOF, AND THEIR THERAPEUTIC APPLICATIONS” (BioTheryX, Inc., priority 2020, published 2024).

Type in all cases: cell-based
Experiment [1] concerns SW480 cells (G12V). Kind of experiment: Cell viability assay (CellTiter-Glo), SW480 cells. The note with it: Homo sapiens, 72 h; SW480 cells, 3 days incubation, CellTiter-Glo luminescence; read-out: Inhibition of Cancerous Cells IC50 SW480 (G12V). The protocol:
(§1) H358, H23, SW48, and AsPC-1 cells were cultured in RPMI 1640 media supplemented with 10% fetal bovine serum, streptomycin, and penicillin. Lovo and SW480 cells were cultured in DMEM media supplemented with 10% fetal bovine serum, streptomycin, and penicillin. The cell lines were plated in their respective medium supplemented with 2.5% fetal bovine serum, streptomycin, and penicillin. All cell lines were plated in white walled 96-well plates at 2,000 cells/well or 384-well plates at 500 cells/well, except Lovo, which were plated at 4,000 or 1,000 cells/well, respectively. The cells were incubated in DMSO (control) or a compound for 3 days at 37° C. under 5% CO2. A CELLTITER-GLO® reagent (100 μL) was then added to each well. After a 10 min incubation with shaking, luminescence was measured using an ENVISION® multimode plate reader.
On the technique in general: ATP-based viability assays read luminescence as a measure of living cells.

In experiment [2] the test system is Lovo cells (G13D). Kind of experiment: Cell viability assay (CellTiter-Glo), Lovo cells. The conditions noted are these: Homo sapiens, 72 h; Lovo cells, 3 days incubation, CellTiter-Glo luminescence; read-out: Inhibition of Cancerous Cells IC50 Lovo (G13D). The protocol: as §1
For experiment [3], the system named is SW48 cells (wt). Kind of experiment: Cell viability assay (CellTiter-Glo), SW48 cells. The note with it: Homo sapiens, 72 h; SW48 cells, 3 days incubation, CellTiter-Glo luminescence; read-out: Inhibition of Cancerous Cells IC50 SW48 (wt). The protocol:
as §1

Experiment [4] has as its system H358 cells (G12C). Kind of experiment: Cell viability assay (CellTiter-Glo), H358 cells. The note with it: Homo sapiens, NCI-H358, 72 h; H358 cells, 3 days incubation, CellTiter-Glo luminescence; read-out: Inhibition of Cancerous Cells IC50 H358 (G12C). The protocol: as §1

For orientation: IC50 means the concentration needed to halve the response being measured. Turning to `CNCc1ccccc1-c1csc([C@H](C)Nc2nc(C)nc3cc(OCCCCCCCN4CCC(c5cc(F)cc6c5CN(C5CCC(=O)NC5=O)C6=O)CC4)c(OC)cc23)c1` (stereo partly drawn) [Compound A16, 3-(6-Fluoro-4-(1-(7-((6-methoxy-2-methyl-4-(((S)-1-(4-(2-((methylamino)-methyl)phenyl)thiophen-2-yl)ethyl)amino)quinazolin-7-yl)oxy)heptyl)piperidin-4-yl)-1-oxoisoindolin-2-yl)piperidine-2,6-dione], the IC50 in experiment [1] came to 0.35 µM; in experiment [2], 0.23 µM; in experiment [3] it was 0.34 µM; in experiment [4], 0.43 µM.
For `COc1cc2c(N[C@H](C)c3cccc(Br)c3)nc(C)nc2c(CCCCCCCN2CCC(c3cc(F)cc4c3CN(C3CCC(=O)NC3=O)C4=O)CC2)c1OC` (stereo partly drawn) [Compound A20, 3-(4-(1-(7-(4-(((R)-1-(3-Bromophenyl)ethyl)amino)-6,7-dimethoxy-2-methyl-quinazolin-8-yl)heptyl)piperidin-4-yl)-6-fluoro-1-oxoisoindolin-2-yl)piperidine-2,6-dione] the same measures were 1.2 µM, 0.95 µM, 0.81 µM and 0.83 µM.
For `CNCc1ccccc1-c1csc([C@H](C)Nc2nc(C)nc3c(CCCCCCCN4CCC(c5cc(F)cc6c5CN(C5CCC(=O)NC5=O)C6=O)CC4)c(OC)c(OC)cc23)c1` (stereo partly drawn) [Compound A56, 3-(4-(1-(7-(6,7-Dimethoxy-2-methyl-4-(((S)-1-(4-(2-((methylamino)methyl)-phenyl)thiophen-2-yl)ethyl)amino)quinazolin-8-yl)heptyl)piperidin-4-yl)-6-fluoro-1-oxoisoindolin-2-yl)piperidine-2,6-dione] the same measures were 0.26 µM, 0.15 µM, 0.19 µM and 0.36 µM.
For `COc1ccc(C2=N[C@@H](c3ccc(Cl)cc3)[C@@H](c3ccc(Cl)cc3)N2C(=O)N2CCN(CC(=O)NCCCCCCCCOc3cc4nc(C)nc(N[C@H](C)c5cccc(Br)c5)c4cc3OC)CC2)c(OC(C)C)c1` [Compound C4, 2-(4-((4S,5R)-4,5-bis(4-chlorophenyl)-2-(2-isopropoxy-4-methoxyphenyl)-4,5-dihydro-1H-imidazole-1-carbonyl)piperazin-1-yl)-N-(8-((4-(((R)-1-(3-bromophenyl)ethyl)-amino)-6-methoxy-2-methylquinazolin-7-yl)oxy)octyl)acetamide] the same measures were more than 10 µM, more than 10 µM, more than 10 µM and more than 10 µM.
For `COc1cc2c(N[C@H](C)c3cccc(Br)c3)nc(C)nc2cc1OCCCCCCCCCCN1CCC(c2cc(F)cc3c2CN(C2CCC(=O)NC2=O)C3=O)CC1` (stereo partly drawn) [Compound A51, 3-(4-(1-(10-((4-(((R)-1-(3-Bromophenyl)ethyl)amino)-6-methoxy-2-methyl-quinazolin-7-yl)oxy)decyl)piperidin-4-yl)-6-fluoro-1-oxoisoindolin-2-yl)piperidine-2,6-dione], the half-maximal inhibitory concentration (IC50) in experiment [1] was found to be 0.64 µM; in experiment [2], 0.16 µM; in experiment [3], 0.29 µM; in experiment [4], 0.39 µM.
Consider `COc1ccc(C2=N[C@@H](c3ccc(Cl)cc3)[C@@H](c3ccc(Cl)cc3)N2C(=O)N2CCN(CC(=O)NCCCCCCCCCCCCOc3cc4nc(C)nc(N[C@H](C)c5cccc(Br)c5)c4cc3OC)CC2)c(OC(C)C)c1` [Compound C6, 2-(4-((4S,5R)-4,5-Bis(4-chlorophenyl)-2-(2-isopropoxy-4-methoxyphenyl)-4,5-dihydro-1H-imidazole-1-carbonyl)piperazin-1-yl)-N-(12-((4-(((R)-1-(3-bromophenyl)ethyl)-amino)-6-methoxy-2-methylquinazolin-7-yl)oxy)dodecyl)acetamide], for which the IC50 in experiment [1], in experiment [2], in experiment [3] and in experiment [4] was more than 10 µM each time.
